# Where two headings read alike, the source gives them in different places.
# Assays:
# PC12 cells [1] = assay: Cell death induced by antimycin A, viable cell count; type: cell-based, Rat
# Method: (§1) The cells were cultured with an incubator at 37° C. under 5% CO2.
# (§2) The cells were cultured at 37° C. in a sealed state. […] The cells were cultured at 37° C.
# (§3) After 24 hours, the number of viable cells having a pyramid-shaped cell form was counted under a phase contrast microscope.
# (§4) PC12 cells were cultured in a collagen-coated 24-well cell culture dish (manufactured by IWAKI&Co. Ltd.). […] After 0, 1, 2, and 3 days, the number of viable cells having a pyramid-shaped cell form was counted under a phase contrast microscope.
# as §4, with “Cell death was induced by antimycin A or menadione in the same way as in Examples 2 and 3. […] First, PC12” for “PC12”, “24 hours,” for “0, 1, 2, and 3 days,”
# as §3
# PC12 cells [2] = assay: Cell death induced by menadione, viable cell count; type: cell-based, Rat
# Method: as §1, §2, §3, §4
# as §4, with “Cell death was induced by antimycin A or menadione in the same way as in Examples 2 and 3. […] First, PC12” for “PC12”, “24 hours,” for “0, 1, 2, and 3 days,”
# [3] = Elimination of nitrogen monoxide by hydrogen water; type: biochemical; details: neutral solution saturated with hydrogen molecules, room temperature
# Method: First, 1 l of water was injected into a 5-l pressure-resistant bottle (manufactured by UNICONTROLS. CO., LTD.). […] After reaction at room temperature for 30 minutes, 1 μM 5-(and -6)-chloromethyl-2′,7′-dichlorodihydrofluorescein diacetate (DCFDH; manufactured by Molecular Probe, USA) was subsequently added thereto. The amount of NO remaining was measured with a fluorescence analyzer (manufactured by TECAN, Austria) at an excitation wavelength of 485 nm. […] After reaction at room temperature for 30 minutes, absorbance at 415, 400, and 340 nm, respectively, were measured with a spectrophotometer.
# [4] = Elimination of hydrogen peroxide by hydrogen water; type: biochemical; details: neutral solution saturated with hydrogen molecules, room temperature
# Method: (§5) First, 1 l of water was injected into a 5-l pressure-resistant bottle (manufactured by UNICONTROLS. CO., LTD.).
# After reaction at room temperature for 30 minutes, 0.2 M phosphate buffer (pH 7.2) containing an equal amount of 20 μM DCFDA was subsequently added thereto. After reaction for 10 minutes, the amount of H2O2 remaining was measured with a fluorescence analyzer at an excitation wavelength of 485 nm.
# (§6) After reaction at room temperature for 30 minutes, absorbance at 415, 400, and 340 nm, respectively, were measured with a spectrophotometer.
# [5] = Elimination of superoxide by hydrogen water; type: biochemical; details: neutral solution saturated with hydrogen molecules, room temperature
# Method: as §5
# For superoxide (O2^−.), 25× Reaction Buffer, Xanthine Solution, and NBT Solution contained in […] […] Then, a Xanthine oxidase solution was added thereto to thereby generate O2^−.. NBT-diformazan accumulation was measured over time with a spectrophotometer at 550 nm.
# as §6
# cytochrome c = assay: Reduction of cytochrome c in hydrogen water; type: biochemical; details: neutral solution saturated with hydrogen molecules, room temperature
# Method: as §5, §6
# [6] = Reduction of FAD in hydrogen water; type: biochemical; details: neutral solution saturated with hydrogen molecules, room temperature
# Method: as §5, §6
# [7] = Reduction of NAD+ in hydrogen water; type: biochemical; details: neutral solution saturated with hydrogen molecules, room temperature
# Method: as §5, §6
# [8] = room temperature, neutral conditions, without catalysts, HPF fluorescence
# Source text: RF-5300PC (manufactured by Shimadzu Corp.) was used in fluorescence intensity measurement.
# The .OH was monitored with a spectrofluorometer.
# skeletal muscle = test system: skeletal muscle
# Method: It has been known that strenuous exercise and the sudden stop of exercise generate free radicals and damage various tissues including muscles. […] Rats (Wister Rats, 8 week old, male) were run at a speed of 40 m/min. for 20 minutes. […] After 30 minutes, the rats were slaughtered. The skeletal muscle was excised. […] The method was conducted according to Sakai, Y., Iwamura, Y., Hayashi, J., Yamamoto, N., Ohkoshi, N., Nagata, H., Acute exercise causes mitochondrial DNA deletion in rat skeletal muscle., Muscle and Nerve 22: 256-261, 1999.
# PC12 cells [9] = details: antimycin A 10 μg/ml, 0.6 mM hydrogen, 30 minutes
# Method: (§7) To generate .OH via O2^−., antimycin A was added to cells. […] The cells were cultured at 37° C.
# (§8) In .OH detection, HPF (0.4 μM) was added to a cell medium, and the fluorescence image thereof was observed using a confocal laser scanning microscope (FV300 manufactured by Olympus Corp.) at an excitation wavelength of 488 nm and an […] wavelength of 510 nm. MitoTracker Green (1 μM; Molecular Probes) and MitoTracker Red (100 nM; Molecular Probes) were used in the staining of mitochondria. Anti-HNE and anti-8-OH-G antibodies were purchased from Nikken Seil Co., Ltd. Moreover, anti-TUJ-1 and anti-GFAP antibodies were purchased from Babco and Immunon, respectively.
# PC12 cells [10] = details: antimycin A 10 μg/ml, 0.6 mM hydrogen, 24 hours
# Method: as §7, §8
# The scale bars in FIGS. 16 and 18 denote 100 μm. Immunostaining intensities with anti-8-OH-G (FIG. 17) and anti-HNE (FIG. 19) antibodies were quantified using NIH Image software. […] Average values and standard deviations were determined from 4 independent experiments. *P<0.05, **P<0.01, ***P<0.001.
# [11] = test system: cerebral ischemia-reperfusion injury
# Method: In cerebral ischemia, diverse mechanisms generate reactive oxygen species, and .OH is detected after ischemia-reperfusion. Rats were rendered locally ischemic for 90 minutes by mild cerebral artery occlusion and subsequently reperfused for 30 minutes. […] FK506 (1 mg/kg of body weight) was administered into the blood once immediately before reperfusion. Edaravone (3 mg/kg of body weight) was administered into the blood twice immediately before reperfusion and immediately after reperfusion. After anesthesia, the rats were maintained at 20° C. under usual air. […] After 1 day of mild cerebral artery occlusion, the brain was sliced, and the slices were stained with 2,3,5-triphenyltetrazolium salt (TTC) capable of serving as a substrate in mitochondrial respiration process. After 1 week, the animals were put under anesthesia. Then, the brain was rapidly excised and fixed with 10% formalin. The paraffin-embedded brain was sliced into a thickness of 6 μm, and the slices were stained with hematoxylin-eosin. Moreover, VECSTAIN ABC Kit was used in staining with antibodies. Anti-Iba-I antibodies were purchased from Wako Pure Chemical Industries, Ltd. Image analysis software (Mac Scope ver. 2.55; Mitsuya Shoji) was used in slide analysis. All the animal experiments were conducted according to the guideline of the animal commission of Nippon Medical School.
# An infarct volume was estimated by measuring visually white regions in the brain. […] For comparison, two compounds were further tested. […] The other compound was FK506, which is under clinical trial for cerebral infarction in USA. […] The brain infarct volume was calculated as a total sum of all the slices according to the equation: infarct area×thickness.
# Rats were rendered locally ischemic for 90 minutes by mild cerebral artery occlusion and subsequently reperfused for 30 minutes. […] The brain was cut by coronal section into 6 slices after 1 day of mild cerebral artery occlusion, and the slices were stained with TTC.
# The photographs of FIG. 28 are the staining images of 3 different slices obtained by this method. […] An average value of infarct volumes and standard deviation were determined from the values of 6 animals in each group. *P<0.05, **P<0.01, ***P<0.001.
# The brain was fixed after 3 days or 7 days of mild cerebral artery occlusion and embedded in paraffin. The coronal sections of 6 μm in thickness were stained with anti-8-OH-G, anti-HNE, or anti-GFAP antibodies. The left photographs of FIGS. 31 to 33 show the same regions adjacent to occlusion in the temporal cortical regions. The scale bar denotes 100 μm.
# In the staining experiment, the brain was fixed after 3 days or 7 days of mild cerebral artery occlusion and embedded in paraffin. The coronal sections were stained with each antibody. The photographs of FIG. 34 show the central regions of occlusion in the temporal cortical regions. The scale bar of FIG. 34 denotes 200 μm. The scale bar in the inserted photographs of FIG. 34 denotes 100 μm. In FIG. 35, an average value of the number of Iba-1-positive cells in a certain field and standard deviation were determined from 6 animals in each group. *P<0.05. […] Microglia accumulation serves as an indicator for a brain disorder.
# [12] = neutral solution saturated with hydrogen molecules, room temperature
# [13] = neutral solution saturated with hydrogen molecules, room temperature; remark: listed apart in the source
# [14] = test system: ischemia-reperfusion injury in the liver; details: untreated 74
# Source text: Mice (C57BL/6 line, 5 week old, male) were put under general anesthesia by supplying mixed anesthetic gases (oxygen: 0.3 L/min., nitrous oxide: 0.7 L/min., Sevofrane (Maruishi Pharmaceutical Co., Ltd.): 3%) thereto with a small animal general anesthesia machine Soft Lander (Neuroscience Inc.). After anesthesia introduction, the anesthesia was maintained for a long time by supplying thereto a mixed anesthetic gas containing Sevofrane at a concentration reduced to 1.5% (oxygen: 0.3 L/min., laughing gas: 0.7 L/min., Sevofrane: 1.5%). Surgical skills (reference: Yadav, S. S. et al., Transplantation 65, 1433-1436 (1998)) shown below were used to prepare model animals with local ischemia-reperfusion injury in the liver. The model animals were examined by hematoxylin-eosin staining (H&E staining) for tissue degeneration in the ischemic liver and hepatic parenchymal cell death induced by ischemia-reperfusion injury.
# The belly was opened in the middle thereof. Three canals, portal vein, hepatic artery, and bile duct, leading to the left robe of the liver were together blocked (ischemia start) with a micro-clamp (FD562; Aesculap, South San Francisco, Calif., USA). The belly was sutured with a silk thread. After 90 minutes, the belly was opened again by removing the silk thread used for suture, and the micro-clamp was removed (reperfusion start). The belly was sutured again with a silk thread. The left robe of the liver was reperfused for 3 hours under anesthesia. […] After reperfusion for 3 hours, the left robe of the liver (ischemic liver) was excised and cut into fine strip slices. The slices were fixed by dipping in 10% neutral buffered formalin solution (Wako Pure Chemical Industries, Ltd.).
# The fixed ischemic liver slices were subjected to dehydration with ethyl alcohol, dehydrating agent removal with xylene, and paraffin infiltration in an automatic embedding apparatus (SAKURA, Tissue-Tek VIPS). The paraffin-embedded ischemic liver was cut into slices of 3 μm to 5 μm in thickness with a sledge microtome. The slices were attached to slide glass. […]
# [15] = test system: cerebral cortex-derived primary cultured neuronal cells
# Method: Rat cerebral cortex-derived primary cultured cells were used to induce oxidative stress under more physiological conditions.
# Rat cerebral cortex-derived primary cultured neuronal cells were prepared from a 16-day-old fetus. The cerebral cortex was cut after meninges removal and digested with a protease mixed solution (SUMILON). The slices were mechanically dissociated with a pipette. Then, the cells were dispersed in a nerve cell culture medium (SUMILON) and seeded at a cell density of 5×10^4 cells/cm^2 in a plate coated with poly-L-lysine. The medium was replaced every three days by Neurobasal Medium (Gibco) containing B-27 (Gibco). The cells cultured for 11 days were used in the experiment. One day before the creation of an oxygen-glucose-deficient state, the medium was replaced by Neurobasal Medium (Gibco) containing B-27 minus AO (Gibco). […] 90% or more of the cells were neuronal cells.
# To terminate the oxygen-glucose-deficient state, the medium was replaced again by the medium used before replacement. Culture was further continued at 37° C. in 95% air/5% carbon dioxide atmosphere.
# After 10 minutes of the termination of the oxygen-glucose-deficient state, the amount of .OH was measured based on HPF fluorescence. […] To prepare a control, cells were treated with a DMEM medium containing glucose and oxygen, instead of being exposed to an oxygen-glucose-deficient state. […] An average value and standard deviation was determined from 4 independent experiments. **P<0.01.
# After 1 day of oxygen-glucose deficiency, the viable neuronal cells were further detected by staining neuron-specific anti-TUJ-1 antibody. […] Average values and standard deviations shown in FIGS. 23 and 24 were determined from 4 independent experiments. ^#<0.0001 in FIG. 23, *P<0.05 in FIG. 24.
# [16] = hydrogen pressure of 1 atm and room temperature; cited from earlier work
# [17] = 2% hydrogen gas inhalation vs non-inhalation
# [18] = brain fixed after 3 days or 7 days of occlusion
compound,measurement,setting,value
"Cc1c(C)c2c(c(C)c1O)CC[C@@](C)(CCC[C@H](C)CCC[C@H](C)CCCC(C)C)O2 [alpha-tocopherol, reference compound]",number of viable cells / inhibitory effects on cell death,"PC12 cells [1]; antimycin A 10 μg/mL, 24 hours, vs hydrogen-free medium, alpha-tocopherol 100 μM (Example 5)","observed, albeit weaker than those of hydrogen"
same,number of viable cells / inhibitory effects on cell death,"PC12 cells [2]; menadione 3 μM, 24 hours, vs hydrogen-free medium, alpha-tocopherol 100 μM (Example 5)",significant effects on menadione were not observed
"[HH] [hydrogen molecules, hydrogen]",reduction of nitrogen monoxide,[3],do not reduce
same,reduction of hydrogen peroxide,[4],do not reduce
same,reduction of O2^−.,[5],do not reduce
same,reduction of oxidized cytochrome c containing trivalent heme iron,cytochrome c,does not reduce
same,reduction of FAD,[6],does not reduce
same,reduction of NAD^+,[7],does not reduce
same,hydroxyl radicals (.OH) levels,[8],reduce hydroxyl radicals (.OH) levels
same,durability of cell death inhibitory effects (time course),"PC12 cells [1]; antimycin A 30 μg/mL, 0, 1, 2 and 3 days",confirmed even on the 2nd day or later
same,hydrogen concentration at which cell death could still be inhibited significantly,"PC12 cells [1]; antimycin A 30 μg/mL, 24 hours, approximately 1/16 of the saturated hydrogen concentration",50 µM
same,durability of cell death inhibitory effects (time course),"PC12 cells [2]; menadione 10 μM, 0, 1, 2 and 3 days",confirmed even on the 2nd day or later
same,deletion in mitochondrial DNA (PCR),skeletal muscle; rats after exercise that ingested hydrogen (inhalation or intraperitoneal saline containing supersaturated hydrogen),reduced
same,damage in the muscular tissues (H&E staining),"skeletal muscle; rats run 40 m/min. for 20 minutes, then air containing 10% hydrogen gas for 30 minutes",alleviate damage in the muscular tissues
same,.OH levels (HPF fluorescence),PC12 cells [9],reduced .OH levels
same,accumulation of 4-hydroxy-2-nonenal (HNE),PC12 cells [10],inhibition of accumulation
same,oxidized guanine (8-OH-G) level,PC12 cells [10],protected nuclear DNA from oxidation
same,body temperature,[11]; [17],improved
same,body weight,[11]; [17],improved
same,brain infarct volume (TTC staining),"[11]; 2% hydrogen gas inhaled only during ischemia but not during reperfusion, 1 day",not reduced
same,most effective hydrogen concentration for reduction of infarct volume,"[11]; 1 day after occlusion, inhaled gas 0 to 4% (v/v) hydrogen",2%
same,brain infarct volume (TTC staining),"[11]; 1 day after occlusion, inhaled hydrogen 0 to 4% (v/v) for 120 minutes in total",Hydrogen concentration-dependent reductions in infarct volume were obviously observed
same,alleviation of an oxidative disorder compared with Edaravone and FK506,"[11]; Edaravone 6 mg/kg of body weight, FK506 1 mg/kg of body weight",more effective for the alleviation of an oxidative disorder than any of the other compounds tested
same,difference in infarct volume between hydrogen-treated and hydrogen-untreated group (hematoxylin-eosin),[11]; after 1 week of occlusion,more significant after 1 week
same,"oxidation marker stainings (anti-8-OH-G, anti-HNE, anti-GFAP positive cells)",[11]; [18],significantly reduced
same,staining with microglia-specific anti-Iba-I antibodies,[11]; [18],significantly reduced
same,reduction of Fe^3+,[12],does not reduce
same,reduction of Cu^2+,[13],does not reduce
same,Degenerated region in liver tissues (%),"[14]; hydrogen gas flow rate 0.04 L/min., from 10 minutes before reperfusion start through whole reperfusion period (280 minutes in total)",26%
same,Degenerated region in liver tissues (%),"[14]; hydrogen gas flow rate 0.1 L/min., from 5 minutes before reperfusion start to 5 minutes after reperfusion start (10 minutes in total)",20%
same,Degenerated region in liver tissues (%),"[14]; hydrogen gas flow rate 0.2 L/min., from 5 minutes before reperfusion start to 5 minutes after reperfusion start (10 minutes in total)",10%
same,increase in the amount of .OH (HPF fluorescence),"[15]; 10 minutes after termination of 60 minutes oxygen-glucose-deficient state, 95% hydrogen/5% carbon dioxide vs nitrogen",not observed in the presence of hydrogen
same,number of viable neuronal cells,"[15]; 1 day after oxygen-glucose deficiency, anti-TUJ-1 staining",increased the number of viable neuronal cells
same,"viability of neuronal cells (cell count, modified MTT method)",[15]; 1 day after oxygen-glucose-deficient state,increased their viabilities
same,amount of hydrogen that can be dissolved per L of water,[16],approximately 17.5 mL per L

# — patent US9050278B2, “Scavenger of in vivo harmful reactive oxygen species and/or free radicals” (priority 2005, dated 2015)
